Data: patent publication US5258379A, “Method of inhibiting gastric acid secretion with n-arylpiperazines” (Eli Lilly and Company, priority 1992, dated 1993)
Where two headings read alike, the source gives them in different places.

Assays:
[1] = tested on: gastric acid secretion; assay: inhibition of gastric acid secretion in the pylorus ligated rat model; format: in vivo, Male Sprague-Dawley rats; conditions: for inhibition in vivo at 10 µmol/kg / inhibition in vivo at 2 µmol/kg: Rattus norvegicus, read-out: Percent Inhibition; for ED50: Table VII, estimated from pylorus ligated rat data; for inhibition in vivo at 2 µmol/kg: 2.0 μmoles/kg; for Inhibition: Table VI
From the text: The gastric acid inhibition activity of direct acting 5-HT1A agonists was established by evaluations using the pylorus ligated rat model. In the pylorus ligated rat model, changes in basal acid secretion may reflect a stimulatory or inhibitory action depending on treatment of compound type tested. The compounds tested were confirmed by various receptor binding tests to have an affinity for the 5-HT1A receptor prior to testing in the pylorus ligated rat model.
The pylorus ligated rat model used is a modification of the procedure developed by Shay (Shay, H., Komarov, A. A. and Greenstein, M.: "Effects of vagotomy in the rat." Arch. Surg. 49:210-226, 1949). Male Sprague-Dawley rats weighing approximately 200 g were starved 24 hours prior to using, with water allowed ad libitum. Under light ether anesthetic the pylorus is ligated, simultaneously the rat is dosed intraperitoneally (i.p.) or subcutaneously (s.c.) and allowed 2 hours for stomach acid accumulation. At the end of 2 hours the rats are sacrificed. Stomach content is measured and titrated to a pH end point of 7.0. Each experiment has its own control group for determining percent of acid change over the 2-hour time period.
Specific compounds within the scope of the above general classes of direct acting 5-HT1A agonists were tested. For evaluation purposes, the compound to be tested is dissolved in distilled water, or in 10% dimethyl sulfoxide, depending upon its solubility. The results of these evaluations are set forth below in Tables I through VI. All compounds were dosed intraperitoneally, unless otherwise indicated.
The ED50 values for certain specific compounds were estimated based on data from the pyrolus ligated rat model evaluations. […] Under "Dose", i.p. means intraperitoneally and s.c. means subcutaneously.

[2] = tested on: gastric secretion; conditions: intravenous infusion in humans, cited from earlier work; for inhibition of gastric secretion (in words): spontaneous and histamine induced
[3] = ip, 2 h, Table I, 10 μmoles/kg, intraperitoneally, 2 hours
[4] = ip, 2 h, Table II, intraperitoneally, 2 hours
[5] = ip, 2 h, Table V, 10 μmoles/kg, intraperitoneally, 2 hours
[6] = Table I, 10 μmoles/kg, intraperitoneally, 2 hours
[7] = ip, 2 h, Table II, 10 μmoles/kg, intraperitoneally, 2 hours
[8] = ip, 2 h, Table IV, 10 μmoles/kg, intraperitoneally, 2 hours
[9] = 10 μmoles/kg, intraperitoneally, 2 hours

CCCN(CCC)C1CCc2cccc(OC)c2C1 (racemic) [Evaluation Example 1, (±) 8-methoxy-2-(dipropylamino)-1,2,3,4-tetrahydronaphthalene]
inhibition in vivo at 10 µmol/kg [1, 3]: 96.4 ± 0.7% | ED50 ([1]; ip, 2 h, i.p., read-out: ED50): 1.54 µmol/kg

CCCN(CCC)C1Cc2c[nH]c3ccc(C(=O)OC)c(c23)C1 (racemic) [Evaluation Example 13, (±)-4-(Di-n-propylamino)-1,3,4,5-tetrahydrobenz[c,d]indole-6-carboxylic acid, methyl ester]
inhibition in vivo at 2 µmol/kg [1, 4]: 86.4 ± 2.5% | ED50 ([1]; ip, 2 h, i.p., read-out: ED50): < 0.1 µmol/kg

CN(C)C1Cc2c[nH]c3ccc(C=O)c(c23)C1 (racemic) [Evaluation Example 17, (±)-4-(Dimethylamino)-1,3,4,5-tetrahydrobenz[c,d]indole-6-carboxaldehyde]
inhibition in vivo at 2 µmol/kg [1, 4]: 79.2 ± 4.6% | ED50 ([1]; ip, 2 h, i.p., read-out: ED50): 1.26 µmol/kg

O=C1NCN(c2ccccc2)C12CCN(CC1COc3ccccc3O1)CC2 (single isomer, unassigned) [Evaluation Example 28]
inhibition in vivo at 10 µmol/kg [1, 5]: 29.3 ± 10%

O=C1NCN(c2ccccc2)C12CCN(CC1COc3ccccc3O1)CC2 (single isomer, unassigned) [Evaluation Example 29]
Percent Inhibition ([1]; Table V, 10 μmoles/kg, intraperitoneally, 2 hours): 24.6 ± 9.2%

NCCc1c[nH]c2ccc(O)cc12 [5-HT, 5-hydroxytryptamine, reference compound]
inhibition of gastric acid secretion ([1]; 20 micromoles/kg, standard): 56.1% | ED50 ([1]; ip, 2 h, i.p., read-out: ED50): 11.5 µmol/kg | production of mucus (in words) [2]: increasing the production of mucus | inhibition of gastric secretion (in words) [2]: inhibits the volume and acidity of both spontaneous and histamine induced gastric secretion

N[C@@H](Cc1c[nH]c2ccc(O)cc12)C(=O)O [5-HTP, 5-hydroxytryptophane]
production of mucus (in words) [2]: increasing the production of mucus | inhibition of gastric secretion (in words) [2]: inhibits the volume and acidity of both spontaneous and histamine induced gastric secretion

CCCN(CCC)[C@@H]1CCc2cccc(SC)c2C1.Cl [Evaluation Example 2, (R)-8-Thiomethyl-N,N-dipropyl-2-aminotetralin hydrochloride]
Percent Inhibition [1, 6]: 94.9 ± 1.2% | ED50 ([1]; i.p., 120 min): 1.56 µmol/kg

CCCN(CCC)[C@H]1CCc2cccc(SC)c2C1.Cl [Evaluation Example 3, (S)-8-Thiomethyl-N,N-dipropyl-2-aminotetralin hydrochloride]
Percent Inhibition [1, 6]: 89.8 ± 4.9% | ED50 ([1]; i.p., 120 min): 1.42 µmol/kg

CCCN(CCC)C1CCc2cccc(C(N)=O)c2C1 (stereo not shown) [Evaluation Example 4]
inhibition in vivo at 10 µmol/kg [1, 3]: 82.5 ± 7.4%

CSc1cccc2c1CC(N(C)C)CC2 (stereo not shown) [Evaluation Example 5, 2-Dimethylamino-8-thiomethyl-1,2,3,4-tetrahydronaphthalene]
inhibition in vivo at 10 µmol/kg [1, 3]: 80.7 ± 8.4%

CCCN(CCC)C1CCc2cccc(Br)c2C1 (stereo not shown) [Evaluation Example 6, 2-Di-n-propylamino-8-bromo-1,2,3,4-tetrahydronaphthalene]
inhibition in vivo at 10 µmol/kg [1, 3]: 39.6 ± 10.9%

CCCN(CCC)C1CCc2cccc(F)c2C1 (stereo not shown) [Evaluation Example 7]
inhibition in vivo at 10 µmol/kg [1, 3]: 24.6 ± 7.9%

CCCN(CCC)C1CCc2cccc(O)c2C1 (stereo not shown) [Evaluation Example 8, 8-hydroxy-2-dipropylamino-1,2,3,4-tetrahydronaphthalene, reference compound]
inhibition in vivo at 2 µmol/kg ([1]; ip, 2 h, Table I, intraperitoneally, 2 hours): 80.1 ± 6.3% | ED50 ([1]; ip, 2 h, i.p., read-out: ED50): 1.56 µmol/kg | ED50 ([1]; sc, 2 h, s.c., read-out: ED50): 0.46 µmol/kg

CCCN(CCC)C1Cc2c[nH]c3ccc(C#N)c(c23)C1 (stereo not shown) [Evaluation Example 9]
inhibition in vivo at 10 µmol/kg [1, 7]: 92.2 ± 3.2%

CN(C)C1Cc2c[nH]c3ccc(C#N)c(c23)C1 (stereo not shown) [Evaluation Example 10]
inhibition in vivo at 10 µmol/kg [1, 7]: 91.6 ± 3.9%

CCCN(CCC)C1Cc2c[nH]c3ccc([N+](=O)[O-])c(c23)C1 (stereo not shown) [Evaluation Example 11]
inhibition in vivo at 10 µmol/kg [1, 7]: 89.8 ± 1.4%

CCCN(CCC)C1Cc2c[nH]c3ccc(Br)c(c23)C1 (stereo not shown) [Evaluation Example 12]
inhibition in vivo at 10 µmol/kg [1, 7]: 87 ± 1.8%

CCCN(CCC)C1Cc2c[nH]c3ccc(OC)c(c23)C1 (stereo not shown) [Evaluation Example 14]
inhibition in vivo at 10 µmol/kg [1, 7]: 86.4 ± 4% | ED50 ([1]; ip, 2 h, i.p., read-out: ED50): < 0.1 µmol/kg

CCCN(CCC)C1Cc2c[nH]c3ccc(C(=O)O)c(c23)C1 (stereo not shown) [Evaluation Example 15]
inhibition in vivo at 10 µmol/kg [1, 7]: 81.7 ± 5.8% | ED50 ([1]; ip, 2 h, i.p., read-out: ED50): 1 µmol/kg

CCCN(CCC)C1Cc2cn(C(C)C)c3ccc(OC)c(c23)C1 (stereo not shown) [Evaluation Example 16]
inhibition in vivo at 10 µmol/kg [1, 7]: 80.9 ± 5.5%

CCCN(CCC)C1Cc2c[nH]c3ccc(C(N)=O)c(c23)C1 (stereo not shown) [Evaluation Example 18]
inhibition in vivo at 10 µmol/kg ([1]; ip, 2 h): 65.5 ± 7.1%

CCCN(CCC)CCc1c[nH]c2ccc(C(N)=O)cc12 [Evaluation Example 19, N,N-dipropyl-5-carboxamidotryptamine]
inhibition in vivo at 10 µmol/kg ([1]; ip, 2 h): 92.7 ± 3.3%

OC(CNC1CC2CCC1C2)COc1ccccc1C1CCCC1 (stereo not shown) [Evaluation Example 20]
inhibition in vivo at 10 µmol/kg [1, 8]: 72.4 ± 7.5%

OC(CNC1CCCCCCC1)COc1ccccc1C1CCCC1 (stereo not shown) [Evaluation Example 21, 1-(2-Cyclopentylphenoxy)-3-(cyclooctylamino)-2-propanol ethanedioate]
inhibition in vivo at 10 µmol/kg [1, 8]: 65.1 ± 5.7%

OC(CNC1CCCC1)COc1ccccc1C1CCCC1 (stereo not shown) [Evaluation Example 24, 1-(2-Cyclopentylphenoxy)-3-(Cyclopentylamino)-2-propanol ethanedioate]
inhibition in vivo at 10 µmol/kg [1, 8]: 19.7 ± 14.8%

Oc1cccc2c1OC(CNCCCC1CCCCC1)CO2 (stereo not shown) [Evaluation Example 25, 2-[(3-Cyclohexylpropyl)aminomethyl]-8-hydroxy-1,4-benzodioxane]
inhibition in vivo at 10 µmol/kg [1, 5]: 70.4 ± 8.4%

COc1ccc(CCNCC2COc3ccccc3O2)cc1OC (stereo not shown) [Evaluation Example 26]
inhibition in vivo at 10 µmol/kg [1, 5]: 58.9 ± 6.6%

CCOc1cccc2c1OC(CNCCc1ccccc1)CO2 (stereo not shown) [Evaluation Example 27, 2-[(2-phenylethyl)aminomethyl]-8-ethoxy-1,4-benzodioxane]
inhibition in vivo at 10 µmol/kg [1, 5]: 38.3 ± 15.9%

c1ccc(CCNCC2COc3ccccc3O2)cc1 (stereo not shown) [Evaluation Example 30, 2-[(2-phenylethyl)aminomethyl]-1,4-benzodioxane]
inhibition in vivo at 10 µmol/kg [1, 5]: 0.3 ± 14.1%

CCCN(CCC)C1CC1c1cccc(O)c1 (stereo not shown) [Evaluation Example 31]
Inhibition [1, 9]: 48.2 ± 17.5

CCCN(CCC)C1CC1c1ccccc1O (stereo not shown) [Evaluation Example 32]
Inhibition [1, 9]: 22.6 ± 11.8

O=C1CC2(CCCC2)CC(=O)N1CCCCN1CCN(c2ncccn2)CC1 [Evaluation Example 33, 8-[4-[4-(2-pyrimidinyl)-1-piperazinyl]butyl]8-azaspiro[4.5]decane-7,9-dione, reference compound]
ED50 ([1]; sc, 2 h, s.c., read-out: ED50): 4.19 µmol/kg
